Assay type in all cases: biochemical
Assay [1] addresses T1, α-glucosidase (Saccharomyces cerevisiae, UniProt P53341).
T1 construct: purchased Sigma Corporation G5003
Put plainly: α-glucosidase inhibitory activity test in vitro. On the procedure: Add 25 μL α-glucosidase water solution (0.2 U/mL) and 175 μL phosphate buffer (50 mM, pH 7.0) into 25 μL different concentration of the above test solutions. The mixed solution is standed for 10 min at room temperature, and then 25 μL 4-nitrophenyl-α-D-glucopyranoside water solution (2.5 mM) is added into the mixed solution. After the solution is incubated at 37 °C for 30 min and centrifuged at 5000 rpm for 5 minutes, 150 uL supernatant is added into 96-well plates and the absorbance is detected at 405 nm.
Blank group: the test solution is replaced by 25 μL phosphate buffer (50 mM, pH 7.0); blank control group: the test solution is replaced by 25 μL phosphate buffer (50 mM, pH 7.0), meanwhile α-glucosidase water solution is replaced by 25 μL phosphate buffer (50 mM, pH 7.0); sample control group: α-glucosidase water solution is replaced by 25 μL phosphate buffer (50 mM, pH 7.0).
(§1) Repeat each of the above experiment groups for 3 times, and then average the results.
IC50=[CL(IH−50)+CH(50−IL)]/(IH−IL) CL: low concentration value; CH: high concentration value; IH: inhibition rate in high concentration; IL: inhibition rate in low concentration

Assay [2] deals with T2, HMG-CoA reductase (Homo sapiens, UniProt P04035).
T2 sequence (P04035 426-888 limits assumed): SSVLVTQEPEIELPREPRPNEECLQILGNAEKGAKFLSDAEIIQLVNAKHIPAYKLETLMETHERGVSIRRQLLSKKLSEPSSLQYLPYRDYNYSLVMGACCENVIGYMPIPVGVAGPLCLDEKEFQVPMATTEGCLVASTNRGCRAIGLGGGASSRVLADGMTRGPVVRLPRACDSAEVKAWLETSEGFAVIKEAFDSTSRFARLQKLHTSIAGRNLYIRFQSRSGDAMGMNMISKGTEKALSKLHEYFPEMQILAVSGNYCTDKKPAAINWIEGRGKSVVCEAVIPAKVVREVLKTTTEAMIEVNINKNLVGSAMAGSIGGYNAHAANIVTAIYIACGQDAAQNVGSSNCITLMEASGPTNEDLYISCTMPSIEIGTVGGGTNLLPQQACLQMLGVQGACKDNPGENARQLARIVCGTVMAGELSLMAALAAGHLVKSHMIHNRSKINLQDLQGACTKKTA
The assay is described as follows: HMG-CoA reductase inhibitory activity test in vitro. On the procedure: Add 25 μL HMG-CoA reductase water solution (0.2 U/mL), 25 μL NADPH water solution (0.2 U/mL) and 24 μL phosphate buffer (50 mM, pH 7.0) into 1 μL different concentration of the above test solution. The mixed solution is standed for 10 min at room temperature, and then 25 μL HMG-CoA is added into the mixed solution. After the solution is incubated at 37∞ for 30 min and centrifuged at 5000 rpm for 5 minutes, 80 uL supernatant is added into 96-well plates and the absorbance is detected at 550 nm.
as §1

In assay [3] the target is T3, protein tyrosine phosphatase 1B (PTP-1B) (Homo sapiens, UniProt P18031).
T3 sequence (P18031 1-435): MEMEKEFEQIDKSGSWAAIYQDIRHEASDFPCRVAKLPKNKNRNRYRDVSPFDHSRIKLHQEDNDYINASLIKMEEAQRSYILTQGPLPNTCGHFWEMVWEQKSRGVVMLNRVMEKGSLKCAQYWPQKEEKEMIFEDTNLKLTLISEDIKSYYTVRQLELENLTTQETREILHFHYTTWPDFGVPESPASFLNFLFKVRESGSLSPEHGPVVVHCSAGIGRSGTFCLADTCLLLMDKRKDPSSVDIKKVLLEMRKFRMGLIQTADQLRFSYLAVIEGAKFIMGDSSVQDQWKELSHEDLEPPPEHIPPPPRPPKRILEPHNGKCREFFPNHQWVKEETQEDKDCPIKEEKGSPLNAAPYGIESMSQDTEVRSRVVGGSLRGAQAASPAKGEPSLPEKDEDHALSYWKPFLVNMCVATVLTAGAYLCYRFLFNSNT
The assay is described as follows: PTP-1B inhibitory activity test in vitro. On the procedure: Experimental procedure: the following reagents are added into 96-well plates in sequence and the mixture ratios of different groups are as followings: Test group: 50 μL compound solution+50 μL 170 μg/mL PTP-1B solution […] Blank group: 50 μL buffer solution+50 μL 170 μg/mL PTP-1B solution Background group: 50 μL compound solution+50 μL buffer solution After adding the reagents, the 96-well plate is […] for 10 min at room temperature to make the compound and the enzyme react completely. Add 50 μL 1 mM pNPP solution which is used as substrate and incubate the mixed solution at 37 °C for 30 min. Then add 50 μL 3M NaOH into each well of the plate to stop the reaction and the optical density is detected at […].

The target of assay [4] is aldose reductase (Homo sapiens, UniProt P15121). The assay is described as follows: aldose reductase inhibitory activity test in vitro. On the procedure:
Experimental procedure: the following reagents are added into 96-well plates in sequence and the mixture ratios of different groups are as followings:
Test group: 10 μL compound solution+25 μL (0.1 mM) NADPH solution+25 μL PBS buffer solution+15 μL aldose reductase diluent
Blank group: 25 μL (0.1 mM) NADPH solution+35 μL PBS buffer solution+15 μL aldose reductase diluent
Background group: 25 μL (0.1 mM) NADPH solution+60 μL PBS buffer solution+15 μL aldose reductase diluent
After adding the reagents, the 96-well plate is standed for 10 min at room temperature to make the compound and the enzyme react completely. Add 25 μL 10 mM D, L glyceraldehyde solution which is used as substrate into the groups except for background group, and incubate the solution at 37 °C for 30 min. Then detect the optical density of each well at 340 nm.

The target of assay [5] is T4, dipeptidyl peptidase-4 (Homo sapiens, UniProt P27487).
T4 construct: purchased
Put plainly: dipeptidyl peptidase-4 inhibitory activity test in vitro (DPP-4 inhibitor screening kit). An excerpt: The above compounds are detected by DPP-4 inhibitor screening kit.

The mark [6] stands for this setting: read-out: α-glucosidase inhibitory activity (IC50).

Like-named read-outs stand apart in the source and are kept apart here.

T4 sequence (P27487 whole entry, species assumed): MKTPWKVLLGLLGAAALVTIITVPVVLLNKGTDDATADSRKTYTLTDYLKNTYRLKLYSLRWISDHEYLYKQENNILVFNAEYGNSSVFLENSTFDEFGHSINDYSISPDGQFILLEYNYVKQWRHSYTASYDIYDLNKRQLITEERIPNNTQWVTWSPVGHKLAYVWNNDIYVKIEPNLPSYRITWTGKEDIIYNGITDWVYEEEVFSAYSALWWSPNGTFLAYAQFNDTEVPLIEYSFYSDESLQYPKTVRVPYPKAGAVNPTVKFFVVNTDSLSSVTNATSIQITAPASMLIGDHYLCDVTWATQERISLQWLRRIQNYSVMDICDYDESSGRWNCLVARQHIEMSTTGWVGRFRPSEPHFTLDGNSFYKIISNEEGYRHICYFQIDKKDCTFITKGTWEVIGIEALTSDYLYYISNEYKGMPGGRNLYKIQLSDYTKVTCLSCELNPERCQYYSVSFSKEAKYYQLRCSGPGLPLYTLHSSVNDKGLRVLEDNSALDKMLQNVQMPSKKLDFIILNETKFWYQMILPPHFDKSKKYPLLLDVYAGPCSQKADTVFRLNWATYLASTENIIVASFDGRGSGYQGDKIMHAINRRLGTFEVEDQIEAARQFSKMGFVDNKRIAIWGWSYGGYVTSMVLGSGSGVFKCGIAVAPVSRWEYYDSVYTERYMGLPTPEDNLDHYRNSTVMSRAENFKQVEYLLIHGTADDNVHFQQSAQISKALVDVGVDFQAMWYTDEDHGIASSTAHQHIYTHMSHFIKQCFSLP
T1 sequence (P53341 whole entry): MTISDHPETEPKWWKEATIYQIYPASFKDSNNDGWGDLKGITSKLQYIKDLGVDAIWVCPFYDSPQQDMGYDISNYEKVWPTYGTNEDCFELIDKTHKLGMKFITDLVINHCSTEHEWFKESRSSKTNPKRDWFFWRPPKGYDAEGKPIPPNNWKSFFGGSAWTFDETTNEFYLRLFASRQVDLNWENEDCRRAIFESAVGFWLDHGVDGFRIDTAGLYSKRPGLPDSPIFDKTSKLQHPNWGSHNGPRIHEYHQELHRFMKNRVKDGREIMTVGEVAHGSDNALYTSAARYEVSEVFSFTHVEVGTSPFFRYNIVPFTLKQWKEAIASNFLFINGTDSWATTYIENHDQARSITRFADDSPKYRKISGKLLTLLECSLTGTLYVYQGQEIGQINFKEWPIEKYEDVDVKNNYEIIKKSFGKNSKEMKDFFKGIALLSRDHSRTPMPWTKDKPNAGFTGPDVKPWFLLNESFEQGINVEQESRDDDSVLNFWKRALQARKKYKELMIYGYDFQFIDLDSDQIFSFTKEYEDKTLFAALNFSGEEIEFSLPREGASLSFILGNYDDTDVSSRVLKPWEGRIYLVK

The IC50 is the concentration that gives 50% inhibition. `CC(C)=CCC/C(C)=C/CCC1=C[C@H](c2ccccc2)OC1=O` [S1, (R,E)-3-(4,8-dimethylnona-3,7-dien-1-yl)-5-phenylfuran-2 (5H)-one]: the IC50 came to 0.18 µM in assay [1] (setting [6]); 3.8 µM in assay [2]; 10.5 µM in assay [3]; 56.1 µM in assay [4]; 12.2 µM in assay [5].

As for `CC(C)=CCC/C(C)=C/CCC1=C[C@H](c2ccc3ccccc3c2)OC1=O` [S2], the IC50 turned out to be 7.4 µM in assay [1] (setting [6]); 49.8 µM in assay [2]; 13.1 µM in assay [3]; 19.8 µM in assay [4]; 12.5 µM in assay [5].

Regarding `COCOc1ccccc1[C@H]1C=C(CC/C=C(\C)CCC=C(C)C)C(=O)O1` [S3], the 50% inhibitory concentration (IC50) in assay [1] (setting [6]) amounted to 8.65 µM; in assay [2], 8.9 µM; in assay [3], 7.8 µM; in assay [4], 38.3 µM; in assay [5] it was 14.5 µM.

Take `CC(C)=CCC/C(C)=C/CCC1=C[C@H](c2ccccc2O)OC1=O` [S4, (R,E)-3-(4,8-dimethylnona-3,7-dien-1-yl)-5-(2-hydroxyphenyl)furan-2 (5-H)-one]: the IC50 was 0.21 µM in assay [1] (setting [6]); 4.7 µM in assay [2]; 11.1 µM in assay [3]; 23.5 µM in assay [4]; 21.2 µM in assay [5].

With `CC(C)=CCC/C(C)=C/CCC1=C[C@H](c2ccccc2[N+](=O)[O-])OC1=O` [S5, (R,E)-3-(4,8-dimethylnona-3,7-dien-1-yl)-5-(2-nitrophenyl)furan-2(5H)-one], the IC50 in assay [1] (setting [6]) turned out to be 0.09 µM; in assay [2], 18.9 µM; in assay [3], 5.3 µM; in assay [4], 8.5 µM; in assay [5], 20.9 µM.

In the case of `CC(C)=CCC/C(C)=C/CCC1=C[C@H](c2ccc(C)cc2)OC1=O` [S6, (R,E)-3-(4,8-dimethylnona-3,7-dien-1-yl)-5-(p-tolyl)furan-2(5H)-one], the IC50 in assay [1] (setting [6]) came to 1.06 µM; in assay [2] it was 8.1 µM; in assay [3] it was 5.6 µM; in assay [4], 63.2 µM; in assay [5], 31.5 µM.

As to `CCc1ccc([C@H]2C=C(CC/C=C(\C)CCC=C(C)C)C(=O)O2)cc1` [S7, (R,E)-3-(4,8-dimethylnona-3,7-dien-1-yl)-5-(4-ethylphenyl)furan-2(5H)-one], the IC50 in assay [1] (setting [6]) worked out at 0.58 µM; in assay [2], 4.2 µM; in assay [3], 15.5 µM; in assay [4], 59 µM; in assay [5], 9.2 µM.

As to `CC(C)=CCC/C(C)=C/CCC1=C[C@H](c2ccc(C(C)C)cc2)OC1=O` [S8, (R,E)-3-(4,8-dimethylnona-3,7-dien-1-yl)-5-(4-isopropylphenyl)furan-2(5H)-one], the IC50 in assay [1] (setting [6]) was 56.2 µM; in assay [2], > 100 µM; in assay [3], 12.7 µM; in assay [4], 84.4 µM; in assay [5], 9.4 µM.

On to `CC(C)=CCC/C(C)=C/CCC1=C[C@H](c2ccc(C(C)(C)C)cc2)OC1=O` [S9, (R,E)-5-(4-(tert-butyl)phenyl)-3-(4,8-dimethylnona-3,7-dien-1-yl)furan-2 (5H)-one], for which the IC50 in assay [1] (setting [6]) turned out to be 0.16 µM; in assay [2], 16.4 µM; in assay [3], 15.8 µM; in assay [4], 1.4 µM; in assay [5], 19.1 µM.

Regarding `COc1ccc([C@H]2C=C(CC/C=C(\C)CCC=C(C)C)C(=O)O2)cc1` [S10, (R,E)-3-(4,8-dimethylnona-3,7-dien-1-yl)-5-(4-methoxyphenyl)furan-2(5H)-one], the IC50 was > 50 µM in assay [1] (setting [6]); 1.2 µM in assay [2]; 10.1 µM in assay [3]; > 100 µM in assay [4]; 18.2 µM in assay [5].

In the case of `CC(C)=CCC/C(C)=C/CCC1=C[C@H](c2ccc([N+](=O)[O-])cc2)OC1=O` [S11, (R,E)-3-(4,8-dimethylnona-3,7-dien-1-yl)-5-(4-nitrophenyl)furan-2(5H)-one], the IC50 was found to be 34.2 µM in assay [1] (setting [6]); 7.4 µM in assay [2]; 8.1 µM in assay [3]; 4.9 µM in assay [4]; 10.2 µM in assay [5].

On to `COc1ccc(OC)c([C@H]2C=C(CC/C=C(\C)CCC=C(C)C)C(=O)O2)c1` [S12, (R,E)-5-(2,5-dimethoxyphenyl)-3-(4,8-dimethylnona-3,7-dien-1-yl)furan-2(5H)-one], for which the concentration for half-maximal inhibition (IC50) in assay [1] (setting [6]) came out at 11.5 µM; in assay [2], 4.4 µM; in assay [3], 11.8 µM; in assay [4], 26.1 µM; in assay [5] it was 8.8 µM.

Consider `CC(C)=CCC/C(C)=C/CCC1=C[C@H](c2c(F)cccc2F)OC1=O` [S14, (R,E)-5-(2,6-difluorophenyl)-3-(4,8-dimethylnona-3,7-dien-1-yl)furan-2(5H)-one], for which the IC50 in assay [1] (setting [6]) was found to be 3.72 µM; in assay [2], 25.1 µM; in assay [3], 3.7 µM; in assay [4] it was 32.1 µM; in assay [5], 24.5 µM.

Regarding `CC(C)=CCC/C(C)=C/CCC1=C[C@H](c2cc(F)c(F)c(F)c2)OC1=O` [S15, (R,E)-3-(4,8-dimethylnona-3,7-dien-1-yl)-5-(3,4,5-trifluorophenyl)furan-2(5H)-one], the IC50 in assay [1] (setting [6]) stood at 1.27 µM; in assay [2], 38.2 µM; in assay [3] it was 25.4 µM; in assay [4], 54.9 µM; in assay [5], 12.1 µM.

For the compound `CC(C)=CCC/C(C)=C/CCC1=C[C@@H](c2ccc3ccccc3c2)OC1=O` [S17, (S,E)-3-(4,8-dimethylnona-3,7-dien-1-yl)-5-(naphthalen-2-yl)furan-2 (5H)-one], the IC50 in assay [1] (setting [6]) turned out to be 6.32 µM; in assay [2], 42.2 µM; in assay [3], 10.1 µM; in assay [4], 20.2 µM; in assay [5], 13.6 µM.

In the case of `COCOc1ccccc1[C@@H]1C=C(CC/C=C(\C)CCC=C(C)C)C(=O)O1` [S18, (S,E)-3-(4,8-dimethylnona-3,7-dien-1-yl)-5-(2-(methoxymethoxy)phenyl) furan-2(5H)-one], the IC50 in assay [1] (setting [6]) stood at 8.2 µM; in assay [2] it was 6.2 µM; in assay [3], 8.2 µM; in assay [4], 40.2 µM; in assay [5], 14.4 µM.

The compound `CC(C)c1c(C(=O)Nc2ccccc2)c(-c2ccccc2)c(-c2ccc(F)cc2)n1CC[C@@H](O)C[C@@H](O)CC(=O)O` [atorvastatin, reference compound] came in with an IC50 in assay [1] of 273 µM.

The record behind these values is patent US10441562B2, “Aromatic farnesyl compound and application thereof” (INSTITUTE OF MICROBIOLOGY, CHINESE ACADEMY OF SCIENCES, priority 2015, dated 2019).
